Results reported in ChEMBL document CHEMBL4130348, “Structure-activity relationship investigation for benzonaphthyridinone derivatives as novel potent Bruton's tyrosine kinase (BTK) irreversible inhibitors” (Eur J Med Chem, 2017).
pEC50, pIC50, pKi: −log10 of the molar value. Values belong to the compound of their own block, whether it stands above or below them. The source made the active and inactive calls. The calls are words filed in the database; no cut-off is given here.

Columns and labels:
[1] = molecular target: Tyrosine-protein kinase Blk (Homo sapiens, UniProt P51451); test: Inhibition of recombinant full length His-tagged human BLK expressed in baculovirus expression system using poly (4:1 Glu, Tyr) as substrate preincubated for 1 hr followed by substrate addition measured after 1 hr by ADP-glo assay
[2] = system: NCI-H358; test: Antiproliferative activity against human NCI-H358 cells after 72 hrs by CellTiter-Glo assay; format: functional; conditions: NCI-H358, 72 h
[3] = system: HeLa; test: Antiproliferative activity against human HeLa cells after 72 hrs by CellTiter-Glo assay; format: functional
[4] = molecular target: T1, Tyrosine-protein kinase BTK (Homo sapiens, UniProt Q06187); test: Irreversible inhibition of recombinant full length His-tagged human BTK expressed in baculovirus expression system using poly (4:1 Glu, Tyr) as substrate preincubated for 2 to 60 mins followed by substrate addition measured after 1 hr by ADP-glo assay
[5] = system: Pfeiffer; test: Induction of apoptosis in human Pfeiffer cells assessed as caspase-3 cleavage up to 10 uM after 48 hrs by immunoblot method; format: functional, cell-based
[6] = system: HCT-116; test: Antiproliferative activity against human HCT116 cells after 72 hrs by CellTiter-Glo assay; format: functional; conditions: HCT-116, 72 h
[7] = system: Ramos; test: Induction of apoptosis in human Ramos cells assessed as caspase-3 cleavage up to 10 uM after 48 hrs by immunoblot method; format: functional, cell-based
[8] = system: NALM-6; test: Antiproliferative activity against human NALM6 cells after 72 hrs by CellTiter-Glo assay; format: functional; conditions: NALM-6, 72 h
[9] = system: NCI-H1975; test: Antiproliferative activity against human NCI-H1975 cells after 72 hrs by CellTiter-Glo assay; format: functional; conditions: NCI-H1975, 72 h
[10] = system: MOLM-13; test: Induction of apoptosis in human MOLM13 cells assessed as PARP cleavage up to 10 uM after 48 hrs by immunoblot method; format: functional, cell-based
[11] = molecular target: T1, Tyrosine-protein kinase BTK; test: Inhibition of BTK transphosphorylation at Y551 in anti-IgM stimulated human MOLM13 cells at 100 to 1000 nM after 4 hrs by chemiluminescence assay
[12] = Antiproliferative activity against human MOLM16 cells after 72 hrs by CellTiter-Glo assay; format: functional; conditions: MOLM16, 72 h
[13] = system: MOLM-13; test: Cell cycle arrest in human MOLM13 cells assessed as accumulation at G0/G1 phase up to 10 uM after 48 hrs by propidium iodide staining-based flow cytometric method; format: functional
[14] = molecular target: T1, Tyrosine-protein kinase BTK; test: Inhibition of BTK autophosphorylation at Y223 in anti-IgM stimulated human Pfeiffer cells after 4 hrs by chemiluminescence assay; format: cell-based
[15] = system: Pfeiffer; test: Induction of apoptosis in human Pfeiffer cells assessed as PARP cleavage up to 10 uM after 48 hrs by immunoblot method; format: functional, cell-based
[16] = system: MOLM-13; test: Antiproliferative activity against human MOLM13 cells after 72 hrs by CellTiter-Glo assay; format: functional; conditions: MOLM-13, 72 h
[17] = system: Z-138; test: Antiproliferative activity against human Z138 cells after 72 hrs by CellTiter-Glo assay; format: functional; conditions: Z-138, 72 h
[18] = system: Tyrosine-protein kinase JAK3; test: Inhibition of TEL-fused JAK3 (unknown origin) expressed in mouse BA/F3 cells after 72 hrs by CellTiter-Glo assay; conditions: Homo sapiens
[19] = system: NCI-H460; test: Antiproliferative activity against human NCI-H460 cells after 72 hrs by CellTiter-Glo assay; format: functional; conditions: NCI-H460, 72 h
[20] = molecular target: Cytoplasmic tyrosine-protein kinase BMX (Homo sapiens, UniProt P51813); test: Inhibition of recombinant full length His-tagged human BMX expressed in baculovirus expression system using poly (4:1 Glu, Tyr) as substrate preincubated for 1 hr followed by substrate addition measured after 1 hr by ADP-glo assay
[21] = system: JVM-2; test: Antiproliferative activity against human JVM2 cells after 72 hrs by CellTiter-Glo assay; format: functional; conditions: JVM-2, 72 h
[22] = molecular target: T1, Tyrosine-protein kinase BTK; test: Inhibition of BTK autophosphorylation at Y223 in anti-IgM stimulated human MOLM13 cells after 4 hrs by chemiluminescence assay
[23] = system: Ramos; test: Induction of apoptosis in human Ramos cells assessed as PARP cleavage up to 10 uM after 48 hrs by immunoblot method; format: functional, cell-based
[24] = molecular target: T1, Tyrosine-protein kinase BTK; test: Irreversible binding affinity to recombinant full length His-tagged human BTK expressed in baculovirus expression system assessed as modification of Cys481 residue containing fragment at 100 uM after 1 hr by LC/MS-MS method
[25] = molecular target: T1, Tyrosine-protein kinase BTK; test: Inhibition of BTK in anti-IgM stimulated human MOLM13 cells assessed as decrease in PLCgamma2 phosphorylation at Y1217 at 100 to 1000 nM after 4 hrs by chemiluminescence assay
[26] = molecular target: T1, Tyrosine-protein kinase BTK; test: Inhibition of BTK transphosphorylation at Y551 in anti-IgM stimulated human Pfeiffer cells at 100 to 1000 nM after 4 hrs by chemiluminescence assay; format: cell-based
[27] = system: NAMALVA; test: Antiproliferative activity against human NAMALWA cells after 72 hrs by CellTiter-Glo assay; format: functional
[28] = system: A-431; test: Antiproliferative activity against human A431 cells after 72 hrs by CellTiter-Glo assay; format: functional; conditions: A-431, 72 h
[29] = molecular target: T1, Tyrosine-protein kinase BTK; test: Inhibition of BTK autophosphorylation at Y223 in anti-IgM stimulated human Ramos cells after 4 hrs by chemiluminescence assay; format: cell-based
[30] = molecular target: T1, Tyrosine-protein kinase BTK; test: Inhibition of BTK in anti-IgM stimulated human Pfeiffer cells assessed as decrease in PLCgamma2 phosphorylation at Y1217 at 100 to 1000 nM after 4 hrs by chemiluminescence assay; format: cell-based
[31] = system: Ramos; test: Cell cycle arrest in human Ramos cells assessed as accumulation at G0/G1 phase up to 10 uM after 48 hrs by propidium iodide staining-based flow cytometric method; format: functional
[32] = cells; format: functional; conditions: Homo sapiens, CLL cell, 72 h
[33] = system: Pfeiffer; test: Cell cycle arrest in human Pfeiffer cells assessed as accumulation at G0/G1 phase up to 10 uM after 48 hrs by propidium iodide staining-based flow cytometric method; format: functional
[34] = cells; format: functional; conditions: Homo sapiens, CLL cell, 72 h; remark: listed apart in the source
[35] = system: OCI-AML-3; test: Antiproliferative activity against human OCI-AML3 cells after 72 hrs by CellTiter-Glo assay; format: functional; conditions: OCI-AML-3, 72 h
[36] = molecular target: T1, Tyrosine-protein kinase BTK; test: Inhibition of BTK transphosphorylation at Y551 in anti-IgM stimulated human Ramos cells at 100 to 1000 nM after 4 hrs by chemiluminescence assay; format: cell-based
[37] = molecular target: T1, Tyrosine-protein kinase BTK; test: Inhibition of BTK in anti-IgM stimulated human Ramos cells assessed as decrease in PLCgamma2 phosphorylation at Y1217 after 4 hrs by chemiluminescence assay; format: cell-based
[38] = system: MOLM-13; test: Induction of apoptosis in human MOLM13 cells assessed as caspase-3 cleavage up to 10 uM after 48 hrs by immunoblot method; format: functional, cell-based
[39] = molecular target: T1, Tyrosine-protein kinase BTK; test: Inhibition of recombinant full length His-tagged human BTK expressed in baculovirus expression system using poly (4:1 Glu, Tyr) as substrate preincubated for 1 hr followed by substrate addition measured after 1 hr by ADP-glo assay

T1 sequence (Q06187 whole entry): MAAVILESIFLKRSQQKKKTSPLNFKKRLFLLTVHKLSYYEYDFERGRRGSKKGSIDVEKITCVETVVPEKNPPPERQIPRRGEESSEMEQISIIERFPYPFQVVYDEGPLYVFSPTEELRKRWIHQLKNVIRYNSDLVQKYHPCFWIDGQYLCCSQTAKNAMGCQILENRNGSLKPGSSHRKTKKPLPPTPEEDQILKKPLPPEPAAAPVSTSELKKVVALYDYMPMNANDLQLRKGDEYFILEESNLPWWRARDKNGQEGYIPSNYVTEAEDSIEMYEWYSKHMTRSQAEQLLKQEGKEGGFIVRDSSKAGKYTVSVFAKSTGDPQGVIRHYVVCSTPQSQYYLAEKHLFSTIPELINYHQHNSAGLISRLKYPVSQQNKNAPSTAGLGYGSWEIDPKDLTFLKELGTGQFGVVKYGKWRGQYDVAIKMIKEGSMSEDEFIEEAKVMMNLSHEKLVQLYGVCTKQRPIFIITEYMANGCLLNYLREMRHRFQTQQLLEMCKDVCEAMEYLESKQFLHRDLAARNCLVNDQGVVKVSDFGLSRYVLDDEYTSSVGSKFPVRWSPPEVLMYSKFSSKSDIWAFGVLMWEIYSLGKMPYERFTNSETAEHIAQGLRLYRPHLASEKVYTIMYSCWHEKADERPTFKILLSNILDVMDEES
Chain of Cytoplasmic tyrosine-protein kinase BMX (P51813 whole entry): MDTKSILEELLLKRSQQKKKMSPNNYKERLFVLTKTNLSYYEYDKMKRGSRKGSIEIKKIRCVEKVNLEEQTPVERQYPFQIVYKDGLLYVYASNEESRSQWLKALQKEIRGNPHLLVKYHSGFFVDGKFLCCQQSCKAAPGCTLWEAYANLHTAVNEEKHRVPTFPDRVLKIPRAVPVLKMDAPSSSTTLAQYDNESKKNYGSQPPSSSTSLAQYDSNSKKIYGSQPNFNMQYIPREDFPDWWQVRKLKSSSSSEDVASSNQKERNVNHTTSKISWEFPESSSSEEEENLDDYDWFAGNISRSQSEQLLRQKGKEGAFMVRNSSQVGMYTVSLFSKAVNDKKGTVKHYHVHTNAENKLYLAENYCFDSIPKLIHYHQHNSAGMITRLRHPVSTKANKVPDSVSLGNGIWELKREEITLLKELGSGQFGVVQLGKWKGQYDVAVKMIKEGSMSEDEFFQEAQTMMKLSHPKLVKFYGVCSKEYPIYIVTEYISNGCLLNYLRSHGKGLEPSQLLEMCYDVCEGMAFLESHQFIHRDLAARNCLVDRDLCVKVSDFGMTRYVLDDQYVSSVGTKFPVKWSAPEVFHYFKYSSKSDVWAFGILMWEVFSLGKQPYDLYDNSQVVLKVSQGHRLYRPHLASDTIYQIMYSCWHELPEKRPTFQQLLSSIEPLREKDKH
Chain of Tyrosine-protein kinase Blk (P51451 whole entry): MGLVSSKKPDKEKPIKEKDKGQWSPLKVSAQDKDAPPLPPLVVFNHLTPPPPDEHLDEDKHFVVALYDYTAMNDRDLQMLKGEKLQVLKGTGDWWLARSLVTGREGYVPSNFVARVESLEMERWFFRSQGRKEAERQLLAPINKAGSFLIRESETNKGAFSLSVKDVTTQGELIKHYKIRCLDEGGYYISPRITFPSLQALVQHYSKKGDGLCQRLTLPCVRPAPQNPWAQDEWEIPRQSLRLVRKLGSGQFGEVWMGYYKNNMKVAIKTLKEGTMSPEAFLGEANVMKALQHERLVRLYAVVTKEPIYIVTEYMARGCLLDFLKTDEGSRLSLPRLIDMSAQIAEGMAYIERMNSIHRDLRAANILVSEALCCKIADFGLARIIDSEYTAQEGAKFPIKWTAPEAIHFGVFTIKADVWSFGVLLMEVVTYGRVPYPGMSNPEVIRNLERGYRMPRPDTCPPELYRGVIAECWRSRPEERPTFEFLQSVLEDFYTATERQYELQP

pIC50 [1]: < 5.00 | GI50 [2]: > 10 µM | GI50 [3]: > 10 µM | pKi [4]: 7.01 | Kinact [4]: 0.07 min⁻¹ | GI50 [6]: > 10 µM | GI50 [9]: 5.57 µM | inhibition [11]: inactive | pEC50 [14]: > 5.52 | GI50 [16]: 590 nM | GI50 [18]: 9.67 µM | GI50 [19]: > 10 µM | pIC50 [20]: 7.08 | pEC50 [22]: > 7.00 | Activity [24]: Active | inhibition [25]: inactive | inhibition [26]: inactive | GI50 [28]: 5.1 µM | pEC50 [29]: > 7.00 | inhibition [30]: inactive | GI50 [35]: 5.6 µM | inhibition [36]: inactive | pEC50 [37]: > 6.00
Compound: C=CC(=O)Nc1cc(-n2c(=O)ccc3cnc4ccc(-n5cccn5)cc4c32)ccc1C
Activity [5]: Active | Activity [7]: Active | GI50 [8]: 1170 nM | Activity [10]: Active | GI50 [12]: 1400 nM | Activity [13]: Active | Activity [15]: Active | GI50 [17]: 8.5 µM | GI50 [21]: 3.4 µM | Activity [23]: Active | GI50 [27]: 4.5 µM | Activity [31]: Active | GI50 [32]: 2900 nM | Activity [33]: Active | GI50 [34]: 2400 nM | Activity [38]: Active

GI50 [2]: > 10 µM | GI50 [3]: > 10 µM | GI50 [6]: > 10 µM | GI50 [9]: > 10 µM | GI50 [16]: > 10000 nM | pIC50 [39]: 5.16 | GI50 [18]: > 10 µM | GI50 [19]: > 10 µM | GI50 [28]: > 10 µM | GI50 [35]: > 10 µM
Compound: CCC(=O)Nc1cc(-n2c(=O)ccc3cnc4ccc(-n5cccn5)cc4c32)ccc1C
GI50 [8]: > 10000 nM | GI50 [12]: > 10000 nM | GI50 [17]: > 10 µM | GI50 [21]: > 10 µM | GI50 [27]: > 10 µM | GI50 [32]: > 10000 nM | GI50 [34]: > 10000 nM
